The text below walks through data of patent US11725036B2, “Modified lipidated relaxin B chain peptides and their therapeutic use” (Sanofi, priority 2018, dated 2023).

Starred links: 1 amine or outer side, 2 acyl side, 3 side chain; linkers in the order of their positions; H or OH if unused. Non-standard residues stand in square brackets, D forms with d. Residues, ends and D or L forms follow the SMILES beside them. Groups on a side chain read outwards from the residue. *: point of attachment. X1 = CCCCCCCCCCCCCCCC(=O)N[C@@H](CCC(=O)N[C@@H](CCC(=O)N[C@@H](CCC(=O)NCCCOCCOCCOCCCNC(=O)CCC(=O)NCCCOCCOCCOCCCNC(=O)CCC(=O)NCCCOCCOCCOCCCN*)C(=O)O)C(=O)O)C(=O)O; αMeF = C[C@](N)(Cc1ccccc1)C(=O)O; Suc = O=C(CCC(=O)[*:2])[*:1]; αMeK = C[C@](N)(CCCCN)C(=O)O; hLys = NCCCCC[C@H](N)C(=O)O; Aib = CC(C)(N)C(=O)O

This assay addresses T1, RXFP1 (Homo sapiens, UniProt Q9HBX9).
T1 construct: OVCAR5 cells expressing endogenous RXFP1; endogenous in cells; host or cells: OVCAR5
T1 sequence (Q9HBX9 1-757): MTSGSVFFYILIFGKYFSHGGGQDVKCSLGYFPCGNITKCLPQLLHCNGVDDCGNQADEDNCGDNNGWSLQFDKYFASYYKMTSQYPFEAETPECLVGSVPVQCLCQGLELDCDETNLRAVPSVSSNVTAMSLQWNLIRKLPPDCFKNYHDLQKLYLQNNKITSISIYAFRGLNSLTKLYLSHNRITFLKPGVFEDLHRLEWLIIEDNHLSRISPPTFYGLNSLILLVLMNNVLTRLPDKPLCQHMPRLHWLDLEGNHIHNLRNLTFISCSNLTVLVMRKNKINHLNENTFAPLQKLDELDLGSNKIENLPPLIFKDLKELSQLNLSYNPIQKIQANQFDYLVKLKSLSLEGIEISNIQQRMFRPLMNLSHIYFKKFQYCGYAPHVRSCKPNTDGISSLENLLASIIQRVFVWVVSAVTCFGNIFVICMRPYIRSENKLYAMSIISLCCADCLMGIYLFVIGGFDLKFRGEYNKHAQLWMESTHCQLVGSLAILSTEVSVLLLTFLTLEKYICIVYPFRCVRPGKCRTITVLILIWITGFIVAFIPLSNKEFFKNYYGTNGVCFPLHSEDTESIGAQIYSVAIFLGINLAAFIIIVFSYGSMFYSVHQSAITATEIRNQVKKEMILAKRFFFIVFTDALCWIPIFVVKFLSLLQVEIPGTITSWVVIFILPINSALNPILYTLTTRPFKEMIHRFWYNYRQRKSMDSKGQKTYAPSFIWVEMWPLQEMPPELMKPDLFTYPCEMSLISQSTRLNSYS
Kind of assay: OVCAR5 cAMP assay (HTRF). In kind it is cell-based. To be noted: for EC50: OVCAR 5 cells expressing endogenous RXFP1, cAMP readout; for Emax: OVCAR 5 cells, maximal cAMP relative to H2-relaxin. The method, boiled down:
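Peptide agonism measured as intracellular cAMP (HTRF) after 30 min at 37° C in serum-free medium, following 40 min 1 mM IBMX preincubation of OVCAR5 cells. Nonlinear regression gave EC50; Emax % = 100 × compound maximal cAMP / H2-relaxin maximal cAMP.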
In general terms: cAMP levels reflect the balance of adenylyl cyclase and phosphodiesterase activity.

Regarding `CCCCCCCCCCCCCCCC(=O)N[C@@H](CCC(=O)N[C@@H](CCC(=O)N[C@@H](CCC(=O)NCCCOCCOCCOCCCNC(=O)CCC(=O)NCCCOCCOCCOCCCNC(=O)CCC(=O)NCCCOCCOCCOCCCNC(=O)CCC(=O)NCCCC[C@H](NC(=O)CNC(=O)[C@H](CCC(=O)O)NC(=O)C(C)(C)NC(=O)C(C)(C)NC(=O)[C@@H](NC(=O)[C@H](CCCCNC(C)=O)NC(=O)C(C)(C)NC(=O)[C@H](CCCNC(=N)N)NC(=O)[C@@H](NC(=O)[C@H](CCCNC(=N)N)NC(=O)[C@H](CCC(=O)O)NC(=O)[C@H](CCCNC(=N)N)NC(=O)CNC(=O)[C@H](CCC(=O)O)NC(=O)[C@H](CC(C)C)NC(C)=O)C(C)C)[C@@H](C)CC)C(=O)N[C@@H](CO)C(=O)N[C@H](C(=O)N[C@@H](Cc1c[nH]c2ccccc12)C(=O)N[C@@H](CO)C(=O)NC(C)(C)C(=O)N[C@@H](CCCNC(=N)N)C(=O)N[C@@H](CCCNC(=N)N)C(=O)N[C@@H](CCCCNC(C)=O)C(N)=O)[C@@H](C)O)C(=O)O)C(=O)O)C(=O)O` [compound 85] (Ac-LEGRERVR[Aib]K(Ac)I[Aib][Aib]EGK([Suc-X1])STWS[Aib]RRK(Ac)-NH2), the EC50 (commonly the midpoint of the concentration-response curve) is 0.3 nM and the Emax – broadly, the greatest response seen or fitted, relative to the assay's reference – turned out to be 92%.

`CCCCCCCCCCCCCCCC(=O)N[C@@H](CCC(=O)N[C@@H](CCC(=O)N[C@@H](CCC(=O)NCCCOCCOCCOCCCNC(=O)CCC(=O)NCCCOCCOCCOCCCNC(=O)CCC(=O)NCCCOCCOCCOCCCNC(=O)CCC(=O)NCCCC[C@H](NC(=O)CNC(=O)[C@H](CCC(=O)O)NC(=O)[C@@H](NC(=O)C(C)(C)NC(=O)[C@@H](NC(=O)[C@H](CCCCNC(C)=O)NC(=O)[C@H](C)NC(=O)[C@H](CCCNC(=N)N)NC(=O)[C@@H](NC(=O)[C@H](CCCCN)NC(=O)[C@H](CCC(=O)O)NC(=O)[C@H](CCCNC(=N)N)NC(=O)CNC(=O)[C@H](CCC(=O)O)NC(=O)C(C)(C)NC(C)=O)C(C)C)[C@@H](C)CC)[C@@H](C)CC)C(=O)N[C@@H](CO)C(=O)N[C@H](C(=O)N[C@@H](Cc1ccccc1)C(=O)N[C@@H](CO)C(=O)N[C@@](C)(CCCCN)C(=O)N[C@@H](CCCNC(=N)N)C(=O)N[C@@H](C)C(=O)N[C@@H](CCCCNC(C)=O)C(N)=O)[C@@H](C)O)C(=O)O)C(=O)O)C(=O)O` [compound 86] (Ac-[Aib]EGREKVRAK(Ac)I[Aib]IEGK([Suc-X1])STFS[αMeK]RAK(Ac)-NH2) showed an EC50 of 0.3 nM and an Emax of 95%.

The compound `CCCCCCCCCCCCCCCC(=O)N[C@@H](CCC(=O)N[C@@H](CCC(=O)N[C@@H](CCC(=O)NCCCOCCOCCOCCCNC(=O)CCC(=O)NCCCOCCOCCOCCCNC(=O)CCC(=O)NCCCOCCOCCOCCCNC(=O)CCC(=O)NCCCC[C@H](NC(=O)CNC(=O)[C@H](CCC(=O)O)NC(=O)C(C)(C)NC(=O)C(C)(C)NC(=O)[C@@H](NC(=O)[C@H](CCCCNC(C)=O)NC(=O)[C@H](C)NC(=O)[C@H](CCCNC(=N)N)NC(=O)[C@@H](NC(=O)[C@H](CCCCN)NC(=O)[C@H](CCC(=O)O)NC(=O)[C@H](CCCNC(=N)N)NC(=O)CNC(=O)[C@H](CCC(=O)O)NC(=O)[C@H](CC(C)C)NC(C)=O)C(C)C)[C@@H](C)CC)C(=O)N[C@@H](CO)C(=O)N[C@H](C(=O)N[C@@H](Cc1ccccc1)C(=O)N[C@@H](CO)C(=O)N[C@@H](CCCNC(=N)N)C(=O)N[C@@H](CCCNC(=N)N)C(=O)N[C@@H](C)C(=O)N[C@@H](CCCCNC(C)=O)C(N)=O)[C@@H](C)O)C(=O)O)C(=O)O)C(=O)O` [compound 87] (Ac-LEGREKVRAK(Ac)I[Aib][Aib]EGK([Suc-X1])STFSRRAK(Ac)-NH2) registered an EC50 of 0.1 nM and an Emax of 96%.

`CCCCCCCCCCCCCCCC(=O)N[C@@H](CCC(=O)N[C@@H](CCC(=O)N[C@@H](CCC(=O)NCCCOCCOCCOCCCNC(=O)CCC(=O)NCCCOCCOCCOCCCNC(=O)CCC(=O)NCCCOCCOCCOCCCNC(=O)CCC(=O)NCCCC[C@H](NC(=O)CNC(=O)[C@H](CCC(=O)O)NC(=O)C(C)(C)NC(=O)C(C)(C)NC(=O)[C@@H](NC(=O)[C@H](CCCCNC(C)=O)NC(=O)[C@H](C)NC(=O)[C@H](CCCNC(=N)N)NC(=O)[C@@H](NC(=O)[C@H](CCCCN)NC(=O)[C@H](CCC(=O)O)NC(=O)[C@H](CCCNC(=N)N)NC(=O)CNC(=O)[C@H](CCC(=O)O)NC(=O)[C@H](CC(C)C)NC(C)=O)C(C)C)[C@@H](C)CC)C(=O)N[C@@H](CO)C(=O)N[C@H](C(=O)N[C@@H](Cc1ccccc1)C(=O)N[C@@H](CO)C(=O)N[C@@H](CCCCCN)C(=O)N[C@@H](CCCNC(=N)N)C(=O)N[C@@H](C)C(=O)N[C@@H](CCCCNC(C)=O)C(N)=O)[C@@H](C)O)C(=O)O)C(=O)O)C(=O)O` [compound 88] (Ac-LEGREKVRAK(Ac)I[Aib][Aib]EGK([Suc-X1])STFS[hLys]RAK(Ac)-NH2) returned an EC50 of 0.17 nM and an Emax of 96%.

As to `CCCCCCCCCCCCCCCC(=O)N[C@@H](CCC(=O)N[C@@H](CCC(=O)N[C@@H](CCC(=O)NCCCOCCOCCOCCCNC(=O)CCC(=O)NCCCOCCOCCOCCCNC(=O)CCC(=O)NCCCOCCOCCOCCCNC(=O)CCC(=O)NCCCC[C@H](NC(=O)CNC(=O)[C@H](CCC(=O)O)NC(=O)C(C)(C)NC(=O)C(C)(C)NC(=O)[C@@H](NC(=O)[C@H](CCCCNC(C)=O)NC(=O)[C@H](C)NC(=O)[C@H](CCCNC(=N)N)NC(=O)[C@@H](NC(=O)[C@H](CCCCN)NC(=O)[C@H](CCC(=O)O)NC(=O)[C@H](CCCNC(=N)N)NC(=O)CNC(=O)[C@H](CCC(=O)O)NC(=O)[C@H](CC(C)C)NC(C)=O)C(C)C)[C@@H](C)CC)C(=O)N[C@@H](CO)C(=O)N[C@H](C(=O)N[C@@](C)(Cc1ccccc1)C(=O)N[C@@H](CO)C(=O)N[C@@H](CCCNC(=N)N)C(=O)N[C@@H](CCCNC(=N)N)C(=O)N[C@@H](C)C(=O)N[C@@H](CCCCNC(C)=O)C(N)=O)[C@@H](C)O)C(=O)O)C(=O)O)C(=O)O` [compound 89] (Ac-LEGREKVRAK(Ac)I[Aib][Aib]EGK([Suc-X1])ST[αMeF]SRRAK(Ac)-NH2), it took 0.1 nM to reach a half-maximal effect (EC50) and the Emax worked out at 97%.

As for `CCCCCCCCCCCCCCCC(=O)N[C@@H](CCC(=O)N[C@@H](CCC(=O)N[C@@H](CCC(=O)NCCCOCCOCCOCCCNC(=O)CCC(=O)NCCCOCCOCCOCCCNC(=O)CCC(=O)NCCCOCCOCCOCCCNC(=O)CCC(=O)NCCCC[C@H](NC(=O)CNC(=O)[C@H](CCC(=O)O)NC(=O)C(C)(C)NC(=O)[C@H](C)NC(=O)[C@@H](NC(=O)[C@H](CCCCNC(C)=O)NC(=O)[C@H](C)NC(=O)[C@H](CCCNC(=N)N)NC(=O)[C@@H](NC(=O)[C@H](CCCCN)NC(=O)[C@H](CCC(=O)O)NC(=O)[C@H](CCCNC(=N)N)NC(=O)CNC(=O)[C@H](CCC(=O)O)NC(=O)[C@H](CC(C)C)NC(C)=O)C(C)C)[C@@H](C)CC)C(=O)N[C@@H](CO)C(=O)N[C@H](C(=O)N[C@@H](Cc1ccccc1)C(=O)N[C@@H](CO)C(=O)N[C@@](C)(CCCCN)C(=O)N[C@@H](CCCNC(=N)N)C(=O)N[C@@H](C)C(=O)N[C@@H](CCCCNC(C)=O)C(N)=O)[C@@H](C)O)C(=O)O)C(=O)O)C(=O)O` [compound 90] (Ac-LEGREKVRAK(Ac)IA[Aib]EGK([Suc-X1])STFS[αMeK]RAK(Ac)-NH2), it took 0.14 nM to reach a half-maximal effect (EC50) and the Emax is 97%.
